The values below come from paper PMC12796733 (The Journal of Biological Chemistry, 2025).

Where only a bound is given, the exact number is not on record here.

Assay type in all cases: binding
One experiment deals with T1, Shp (Streptococcus pyogenes, UniProt Q06A48).
T1 construct: E. coli BL21(DE3)
Briefly: isothermal titration calorimetry. Conditions: PBS pH 7.4, 5% DMSO, 25 °C; one set of sites. For orientation: ITC needs no label: the signal is the heat of the interaction.

Experiment [1] deals with T2, NEAT2 (Streptococcus pyogenes, UniProt Q99YA0).
T2 construct: gene shr; NEAT2 domain, Ala970-Thr1129 of 1275-residue Shr; E. coli BL21(DE3)
Briefly: isothermal titration calorimetry. Conditions: PBS pH 7.4, 5% DMSO, 25 °C; one set of sites.

Experiment [2] deals with T2, NEAT2. Briefly: differential scanning calorimetry. Conditions: PBS; 1 mg/ml protein. (DSC measures the heat that a sample takes up or gives off during a temperature scan.)
Experiment [3] has as its target T3, Linker-NEAT1 (Streptococcus pyogenes, UniProt Q99YA0).
T3 construct: gene shr; linker + NEAT1 domain, Ser294-Gly502 of 1275-residue Shr; E. coli BL21(DE3)
Briefly: isothermal titration calorimetry. Conditions: PBS pH 7.4, 5% DMSO, 25 °C; one set of sites.

Experiment [4] concerns the target T3, Linker-NEAT1. Briefly: differential scanning calorimetry. Conditions: PBS; 1 mg/ml protein.

T3 sequence (Q99YA0 294-502): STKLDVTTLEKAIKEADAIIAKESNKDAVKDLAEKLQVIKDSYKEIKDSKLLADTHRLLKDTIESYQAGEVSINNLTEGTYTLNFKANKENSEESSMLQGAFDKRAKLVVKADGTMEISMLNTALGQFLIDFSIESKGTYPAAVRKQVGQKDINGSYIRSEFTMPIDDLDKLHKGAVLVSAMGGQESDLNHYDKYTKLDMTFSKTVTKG
T2 sequence (Q99YA0 970-1129): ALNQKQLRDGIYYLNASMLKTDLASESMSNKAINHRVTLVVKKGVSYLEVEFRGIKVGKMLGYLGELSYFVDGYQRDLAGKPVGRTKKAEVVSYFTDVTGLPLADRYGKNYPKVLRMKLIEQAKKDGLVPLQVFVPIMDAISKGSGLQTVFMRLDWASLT
T1 sequence (Q06A48 entry or part of it): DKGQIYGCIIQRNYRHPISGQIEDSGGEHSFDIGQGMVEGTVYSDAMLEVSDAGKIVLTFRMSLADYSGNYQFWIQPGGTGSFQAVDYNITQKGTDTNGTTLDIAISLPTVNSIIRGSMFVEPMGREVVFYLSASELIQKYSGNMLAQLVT

By Kd is commonly meant the concentration at which binding is half-saturated. A lower Kd goes with tighter binding. heme: the values for the Kd at Shp, at NEAT2 [1] and on Linker-NEAT1 [3] were under 0.81 nM, 12.7 ± 10.3 nM and 32 ± 23.4 nM, respectively. Besides, the “Tm with heme (apo 58.1 °C)” value on NEAT2 [2] is 64.0 °C. Also, the “Tm with heme (apo 34.6 °C)” value on Linker-NEAT1 [4] is 41.1 °C.
